Experimental data reported in patent US9283209B2, “Oral formulations of deferasirox” (NOVARTIS AG, priority 2013, dated 2016).
In brackets after ≈: the same amount, converted by molar mass. Like-named read-outs stand apart in the source and are kept apart here.

Assays:
[1] = Exjade (deferasirox) solubility profile at 37 C; assay type: physicochemical
Description: Due to the poor solubility of Exjade™ (deferasirox), a high dose is required to achieve the desired therapeutic effect, which results in unwanted side effects, such as gastrointestinal (GI) irritation and kidney toxicity. […] To meet the high dose requirement and reduce pill burden Exjade™ (deferasirox) was developed as dispersible tablets with about 29.4% drug load. The disadvantage of this type of formulation is that the tablets have to be dispersed in water or appropriate liquid, such as in orange juice or apple juice and stirred until a fine suspension is obtained prior to administration. Further, the dispersible tablets have to be taken at least 30 minutes before food.

[2] = Study 2209: one year study in NTDT patients, GI adverse event rates; assay type: in vivo, human; conditions: 10 mg/kg
Description: The new Exjade formulations represent a significant improvement in patient care and support compliance with chelation therapy because of the improved pharmaceutical properties and because of the changes in composition. […] Exjade currently also contains lactose and so is not recommended in patients with rare hereditary problems of galactose intolerance, the Lapp lactase deficiency, glucose-galactose malabsorption or severe lactase deficiency. Novartis believes the exclusion of lactose and sodium lauryl sulfate in the new formulations will improve the gastrointestinal tolerability of the product.

[3] = Patient study A0105F: Exjade after high-fat breakfast; assay type: in vivo, human; conditions: patients
Method: (§1) Therefore, patients would only be exposed to the highest approved dose (40 mg/kg/day for the current formulation) after an extended period of up-titration with confirmed tolerability • the absence of a significant food effect results in a lower risk of increased exposure when the drug is taken with a meal.

[4] = Thorough QT healthy volunteer study; assay type: in vivo, human; conditions: human, in vivo, oral, 40 mg/kg, 40 mg/kg immediately after a high-fat breakfast, 44 healthy volunteers
Method: as §1
(§2) Deferasirox Cmax values in healthy volunteers are generally higher than in patients. Two healthy volunteer studies in the initial registration package in 2005 were therefore reviewed for potential Cmax-related adverse events.

QT interval = assay: Thorough QT healthy volunteer study; assay type: in vivo, human
Method: as §1, §2

[5] = Randomized crossover bioequivalence study, Exjade dispersed in fruit juice or water; assay type: in vivo, human; conditions: single 20 mg/kg dose, 28 healthy volunteers, 2.5 to 5 hours after intake
Description: as §2

[6] = system: serum creatinine, creatinine clearance; conditions: human, in vivo
Method: In addition, a new analysis of creatinine and creatinine clearance changes was performed to explore whether deferasirox-associated renal changes are a function of peak exposure (Cmax) or of overall exposure (AUC). The analysis used data from the large multicenter study 7, in which Ctrough (a proxy of AUC) and deferasirox C2h (a proxy of Cmax) was collected at multiple time points.
Based on study 7 data, the relationship between PK parameters at steady state (Ctrough and C2h) and serum creatinine was investigated by using a linear mixed model of log-transformed creatinine values (1990 observations at week 12 and 28) with patient included in model as a random effect. After log-transformation, baseline creatinine levels, C2h and Ctrough were included as predictors in the model.

[7] = 40 mg/kg after high-fat breakfast, 44 volunteers

solubility ([1]; aqueous buffer, pH 3, 37 C): < 10 µg/mL
solubility ([1]; aqueous buffer, pH 4, 37 C): < 10 µg/mL
solubility ([1]; aqueous buffer, pH 5, 37 C): < 10 µg/mL
solubility ([1]; aqueous buffer, pH 7.5, 37 C): 167 µg/mL (≈ 447 µM)
solubility ([1]; simulated gastric fluid, pH 1, 37 C): < 10 µg/mL
solubility ([1]; simulated gastric fluid, pH 2, 37 C): < 10 µg/mL
solubility ([1]; water, 37 C): 20 µg/mL (≈ 53.6 µM)
Change in exposure after a high-fat breakfast [3]: nearly doubled
HV subjects reporting loose stools [5]: three
Estimate, Log (C2h) [6]: 0.03287
Estimate, Log (Ctrough) [6]: 0.06504
Estimate, Log (baseline creatinine) [6]: 0.9593
Estimate, Log(C2h) [6]: −0.00203
Estimate, Log(Ctrough) [6]: 0.9346
Estimate, Log(baseline creatinine clearance) [6]: −10.3474
OR for a 2-fold increase in PK parameter, Log(C2h) [6]: 0.999
OR for a 2-fold increase in PK parameter, Log(Ctrough) [6]: 1.911
OR for a 30% increase in PK parameter, Log(Ctrough) [6]: 1.278
Slope of linear regression between Day 1 C2h and percent change in serum creatinine at week 4 [6]: 0.03 (−0.01, 0.08)
Structure (SMILES): O=C(O)c1ccc(-n2nc(-c3ccccc3O)nc2-c2ccccc2O)cc1 [deferasirox]
GI adverse event rate [2]: 36.4%
Cmax ([4]; read-out: Cmax (average)): 256 µM
Cmax ([4]; read-out: Cmax (range)): 134 to 472 µM
GI symptoms (diarrhea/loose stools, flatulence, and nausea) (QT interval; [7]): 18%
Headache and dizziness, one patient each (QT interval; [7]): 2%
Effect on the QT interval (QT interval; healthy volunteers, doses up to 40 mg/kg): no effect
